Read-outs that look alike come from different tables or passages of the source.
Tests used:
Assay type in all cases: cell-based, Staphylococcus aureus
[1] = test system: mid-logarithmic EMRSA-16 cells; experiment: Binding of catechins to S. aureus cells (HPLC assay of Kajiya et al); settings: for fraction of the catechin pool bound to / associated with the cells: catechin alone, 20 min incubation at 35° C.
From the text: As S. aureus membranes are uniquely composed of phosphatidylglycerol (63-74%), lysylphosphatidylglycerol (17-22%), and cardiolipin (5-15%), the inventors determined the capacity of non-galloylated catechins to enhance ECG binding to S. aureus using the HPLC assay described by Kajiya et al (Kajiya, K., S. Kumazawa, and T. Nakayama. 2001. Steric effects on the interaction of tea catechins with lipid bilayers. Biosci. Biotechnol. Biochem. 65:2638-2643). EC, EGC, ECG and EGCG were provided by the Tokyo Food Techno Co. Ltd., Tokyo, Japan. S. aureus BB568 is a constitutive PBP2a producer (provided by B. Berger-Bächi, University of Zürich), and EMRSA-15 and EMRSA-16 were clinical isolates from the Royal Free Hospital, London. Binding of ECG to mid-logarithmic EMRSA-16 cells was enhanced by EC at concentrations of 25 mcg/ml. 13% of the EC pool bound after 20 min incubation at 35° C., and 22% of ECG was associated with the cells. In the presence of EC, ECG binding rose to 41%. […] EC appears, therefore, to facilitate ECG binding to staphylococcal cells as well as to PC and PE liposomes.

EMRSA-16 = experiment: Checkerboard MIC assay, sensitization to oxacillin; settings: for MIC: Staphylococcus aureus
Procedure: MICs were then recorded and the experiments were repeated in the presence of the non-galloylated catechin epicatechin at varying concentrations between 0 mcg/ml and 50 mcg/ml.
(§1) Checkerboard MIC assays were performed in 96-well microtiter trays with an inoculum of about 10^4 CFU in 200 μl of Mueller-Hinton broth (Oxoid, Basingstoke, United Kingdom) supplemented with 2% NaCl. MIC values were obtained after incubation at 35° C. for 24 h. S. aureus ATCC29213 was used as the standard susceptible strain. Fractional inhibitory concentration (FIC) indices for triple combinations were calculated as follows: ΣFIC=FICOXA+FICB+FICC=[C^combOXA/MIC^OXA]+[C^combB/MICB]+[C^combC/MICC], where C^combB, and C^combc are the concentrations of catechins tested. […] For combinations of two compounds the term (C^combC/MICC) was omitted. An FIC index of ≦0.5 indicates synergy.

[2] = test system: EMRSA-16, EMRSA-15 and BB568; experiment: Checkerboard MIC assay, results stated jointly for the three isolates
Procedure: as §1

S. aureus BB568 = experiment: Checkerboard MIC assay, sensitization to oxacillin; settings: for MIC: Staphylococcus aureus
Procedure: as §1

EMRSA-15 = experiment: Checkerboard MIC assay, sensitization to oxacillin
Procedure: as §1

For Oc1cc(O)c2c(c1)O[C@H](c1ccc(O)c(O)c1)[C@H](O)C2 [EC, epicatechin], the “EC binding in the presence of ECG” value ([1]; 20 min at 35° C.) was 35.5% and the “fraction of the catechin pool bound to / associated with the cells” value [1] was 13%.

With O=C(O[C@@H]1Cc2c(O)cc(O)cc2O[C@@H]1c1ccc(O)c(O)c1)c1cc(O)c(O)c(O)c1 [ECG, epicatechin gallate] the “ECG binding in the presence of EC” value ([1]; EC 25 mcg/ml, 20 min at 35° C.) was 41%, the “fraction of the catechin pool bound to / associated with the cells” value [1] was 22% and the “growth of EMRSA-16 in the absence of oxacillin” value (EMRSA-16; ECG ≧12.5 mg/ml with both EC and EGC ≧50 mg/ml, no oxacillin) was “inhibited the growth”.

With Oc1cc(O)c2c(c1)O[C@H](c1cc(O)c(O)c(O)c1)[C@H](O)C2 [EGC, epigallocatechin] the “FIC index, triple combination with oxacillin and ECG” value ([2]; FIC index ≦0.5 indicates synergy) was “strong synergy”, the “effect on the capacity of ECG to reduce oxacillin resistance” value ([2]; in combination with ECG and oxacillin) was “markedly enhanced” and the “enhancement of EGCG-mediated sensitization to oxacillin” value ([2]; in combination with EGCG and oxacillin, less than with ECG) was “could enhance sensitization”. For the same compound, the “effect of the non-galloylated catechin alone on the MIC of oxacillin” value ([2]; without ECG) was “unable to reduce the MIC of oxacillin”.

O=C(O[C@@H]1Cc2c(O)cc(O)cc2O[C@@H]1c1cc(O)c(O)c(O)c1)c1cc(O)c(O)c(O)c1 [EGCG, epigallocatechin gallate] was tested, and the “effect of EGCG on the capacity of ECG to reduce the oxacillin MIC” value (S. aureus BB568; ECG 12.5 mg/ml) was “compromised the capacity of ECG to reduce the MICs”, the “effect on oxacillin MIC when added to ECG” value (EMRSA-16; ECG 0-12.5 mcg/ml, added catechin 0-50 mcg/ml) was “substantially no significant and synergistic effect” and the “effect of EGCG on the capacity of ECG to reduce the oxacillin MIC” value (EMRSA-16; ECG 12.5 mg/ml) was “compromised the capacity of ECG to reduce the MICs”. The “reduction of the oxacillin MIC by EGCG in the presence of ECG” value ([2]; ECG 3.12 mg/ml + EGCG 25 mg/ml, strain not stated) was “twofold” and the “sensitization to oxacillin by EGCG” value ([2]; EGCG without ECG, effect much less pronounced than with ECG) was “able to sensitize”.

For Cc1onc(-c2ccccc2)c1C(=O)N[C@@H]1C(=O)N2[C@@H]1SC(C)(C)[C@@H]2C(=O)O [oxacillin], the “oxacillin MIC in the presence of ECG” value (EMRSA-15; ECG 3.12 mg/ml) was “a similar effect was achieved”, the MIC (EMRSA-15; Staphylococcus aureus, 24 h, read-out: MIC of oxacillin) was 16 µg/mL and the “oxacillin MIC in the presence of ECG” value (S. aureus BB568; ECG 12.5 mg/ml) was “below the oxacillin breakpoint”. The MIC (S. aureus BB568; BB568, read-out: oxacillin MIC in the presence of ECG and EC) was 8 µg/mL, the MIC (S. aureus BB568; BB568, read-out: oxacillin MIC in the presence of ECG and EC, ECG 3.12 mg/ml + EC 25 mg/ml) was 2 µg/mL and the “oxacillin MIC in the presence of ECG” value (EMRSA-16; ECG 12.5 mg/ml) was “below the oxacillin breakpoint”. The MIC (EMRSA-16; read-out: oxacillin MIC in the presence of ECG and EC, ECG 3.12 mg/ml + EC 25 mg/ml) was 2 µg/mL and the MIC (EMRSA-16; read-out: oxacillin MIC in the presence of ECG and EC, ECG 3.12 mcg/ml + EC 6.25 mcg/ml) was 8 µg/mL.

— patent US8338476B2, “Compositions and methods of sensitizing methicillin resistant Staphylococcus aureus to beta-lactam antibiotics” (priority 2005, dated 2012)
